Values joined by “and” are separate entries in the source; they are usually repeats but may differ in a detail not shown here. Identical values can stand only once. Counter-ions that a name gives are not always drawn.
Assays:
[1] = test system: Malate dehydrogenase and diaphorase; assay: Formation of formazan dyes: Malate dehydrogenase and diaphorase, absence of malate (TABLE 9); assay type: biochemical, pig heart
[2] = test system: Malate dehydrogenase and diaphorase; assay: Formation of formazan dyes: Malate dehydrogenase, diaphorase and malate (TABLE 10); assay type: biochemical, pig heart
diaphorase [3] = assay: Formation of formazan dyes: only diaphorase and malate (TABLE 14); assay type: biochemical, Clostridium kluyveri; settings: mean of three experiments
[4] = Formation of formazan dyes: control buffer and 1-Methoxy PMS, absence of malate (TABLE 21); assay type: biochemical
diaphorase [5] = assay: Formation of formazan dyes: only diaphorase, not malate (TABLE 13); assay type: biochemical, Clostridium kluyveri; settings: mean of three experiments
oral lavage [6] = assay: Formation of formazan dyes: oral lavage and diaphorase, not malate (TABLE 11); assay type: biochemical, human
Malate dehydrogenase [7] = target: T1, Malate dehydrogenase (Sus scrofa, UniProt P00346); assay: Formation of formazan dyes: Malate dehydrogenase, malate and 1-Methoxy PMS (TABLE 18); assay type: biochemical, pig heart; parameters: L-malate dehydrogenase (pig heart); purchased Sigma-Aldrich 10127248001 / 10127914001
T1 sequence (P00346 25-338): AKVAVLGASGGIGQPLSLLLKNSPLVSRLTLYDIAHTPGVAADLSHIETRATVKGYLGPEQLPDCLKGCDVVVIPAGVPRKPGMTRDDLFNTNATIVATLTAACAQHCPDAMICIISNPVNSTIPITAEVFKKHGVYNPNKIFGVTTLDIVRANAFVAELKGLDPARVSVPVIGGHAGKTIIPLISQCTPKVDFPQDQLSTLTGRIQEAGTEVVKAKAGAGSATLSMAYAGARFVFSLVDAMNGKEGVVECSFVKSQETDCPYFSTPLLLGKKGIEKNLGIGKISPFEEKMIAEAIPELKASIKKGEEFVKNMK

Malate dehydrogenase [8] = target: T1, Malate dehydrogenase; assay: Formation of formazan dyes: Malate dehydrogenase and 1-Methoxy PMS, absence of malate (TABLE 17); assay type: biochemical, pig heart; parameters: L-malate dehydrogenase (pig heart); purchased Sigma-Aldrich 10127248001 / 10127914001
diaphorase [9] = assay: Formation of formazan dyes: NADH and diaphorase, absence of malate (TABLE 7); assay type: biochemical, Clostridium kluyveri; settings: NADH and diaphorase, absence of malate
diaphorase [10] = assay: Formation of formazan dyes: NADH, diaphorase and malate (TABLE 8); assay type: biochemical, Clostridium kluyveri; settings: NADH, diaphorase and malate
[11] = Formation of formazan dyes: NADH, malate and 1-methoxy PMS (TABLE 16); assay type: biochemical
[12] = Formation of formazan dyes: control buffer, malate and 1-Methoxy PMS (TABLE 22); assay type: biochemical
oral lavage [13] = assay: Formation of formazan dyes: oral lavage, malate and diaphorase (TABLE 12); assay type: biochemical, human; settings: oral lavage, malate and diaphorase

## COc1cc([N+](=O)[O-])c(S(=O)(=O)[O-])cc1-n1nc(C(=O)Nc2ccccc2)n[n+]1-c1cc(S(=O)(=O)O)c([N+](=O)[O-])cc1OC [XTT, 2,3-Bis(2-methoxy-4-nitro-5-sulfophenyl)-2H-tetrazolium-5-carboxanilide inner salt]
[1]; Malate dehydrogenase and diaphorase, absence of malate, 0 h
  Formation of formazan dyes, absorbance, Means 0 h: 0.39
[1]; Malate dehydrogenase and diaphorase, absence of malate, 1 h
  Formation of formazan dyes, absorbance, Means 1 h: 0.44
[1]; Malate dehydrogenase and diaphorase, absence of malate, 2 h
  Formation of formazan dyes, absorbance, Means 2 h: 0.46
[1]; Malate dehydrogenase and diaphorase, absence of malate, 3 h
  Formation of formazan dyes, absorbance, Means 3 h: 0.50
[1]; Malate dehydrogenase and diaphorase, absence of malate, 4 h
  Formation of formazan dyes, absorbance, Means 4 h: 0.50
[1]; Malate dehydrogenase and diaphorase, absence of malate, 6 h
  Formation of formazan dyes, absorbance, Means 6 h: 0.54
[1]; Malate dehydrogenase and diaphorase, absence of malate, 8 h
  Formation of formazan dyes, absorbance, Means 8 h: 0.57
[1]; Malate dehydrogenase and diaphorase, absence of malate, 10 h
  Formation of formazan dyes, absorbance, Means 10 h: 0.58
[1]; Malate dehydrogenase and diaphorase, absence of malate, 12 h
  Formation of formazan dyes, absorbance, Means 12 h: 0.66
[1]; malate dehydrogenase and diaphorase (TABLE 9)
  reduction of tetrazolium dye in the absence of substrate malate: remained largely in oxidized forms
[2]; Malate dehydrogenase, diaphorase and malate, 0 h
  Formation of formazan dyes, absorbance, Means 0 h: 1.21
[2]; Malate dehydrogenase, diaphorase and malate, 1 h
  Formation of formazan dyes, absorbance, Means 1 h: 1.98
[2]; Malate dehydrogenase, diaphorase and malate, 2 h
  Formation of formazan dyes, absorbance, Means 2 h: 2.41
[2]; Malate dehydrogenase, diaphorase and malate, 3 h
  Formation of formazan dyes, absorbance, Means 3 h: 2.71
[2]; Malate dehydrogenase, diaphorase and malate, 4 h
  Formation of formazan dyes, absorbance, Means 4 h: 3.02
[2]; Malate dehydrogenase, diaphorase and malate, 6 h
  Formation of formazan dyes, absorbance, Means 6 h: 3.54
[2]; Malate dehydrogenase, diaphorase and malate, 8 h
  Formation of formazan dyes, absorbance, Means 8 h: 3.86
[2]; Malate dehydrogenase, diaphorase and malate, 10 h
  Formation of formazan dyes, absorbance, Means 10 h: 3.90
[2]; Malate dehydrogenase, diaphorase and malate, 12 h
  Formation of formazan dyes, absorbance, Means 12 h: 3.80
[2]; malate dehydrogenase, diaphorase and malate (TABLE 10)
  conversion to reduced formazan dyes: converted to reduced formazan dyes in a time-dependent manner
Diaphorase [3]; 0 h
  Absorbance, formation of formazan dyes (Means): 0.39
Diaphorase [3]; 1 h
  Absorbance, formation of formazan dyes (Means): 0.45
Diaphorase [3]; 2 h
  Absorbance, formation of formazan dyes (Means): 0.48
Diaphorase [3]; 3 h
  Absorbance, formation of formazan dyes (Means): 0.53
Diaphorase [3]; 4 h
  Absorbance, formation of formazan dyes (Means): 0.52
Diaphorase [3]; 6 h
  Absorbance, formation of formazan dyes (Means): 0.57
Diaphorase [3]; 8 h
  Absorbance, formation of formazan dyes (Means): 0.63
Diaphorase [3]; 10 h
  Absorbance, formation of formazan dyes (Means): 0.69
Diaphorase [3]; 12 h
  Absorbance, formation of formazan dyes (Means): 0.73
[4]
  conversion into colored formazan dyes in assay buffer containing 1-methoxy PMS: slowly catalyze the conversion of tetrazolium salts into colored formazan dyes
Diaphorase [5]; 0 h
  Absorbance, formation of formazan dyes (Means): 0.41
Diaphorase [5]; 1 h
  Absorbance, formation of formazan dyes (Means): 0.49
Diaphorase [5]; 2 h
  Absorbance, formation of formazan dyes (Means): 0.52
Diaphorase [5]; 3 h
  Absorbance, formation of formazan dyes (Means): 0.54
Diaphorase [5]; 4 h
  Absorbance, formation of formazan dyes (Means): 0.54
Diaphorase [5]; 6 h
  Absorbance, formation of formazan dyes (Means): 0.60
Diaphorase [5]; 8 h
  Absorbance, formation of formazan dyes (Means): 0.63
Diaphorase [5]; 10 h
  Absorbance, formation of formazan dyes (Means): 0.64
Diaphorase [5]; 12 h
  Absorbance, formation of formazan dyes (Means): 0.67
Oral lavage [6]; oral lavage and diaphorase, not malate, 0 h
  Formation of formazan dyes, absorbance, Means 0 h: 0.80
Oral lavage [6]; oral lavage and diaphorase, not malate, 1 h
  Formation of formazan dyes, absorbance, Means 1 h: 0.98
Oral lavage [6]; oral lavage and diaphorase, not malate, 2 h
  Formation of formazan dyes, absorbance, Means 2 h: 1.04
Oral lavage [6]; oral lavage and diaphorase, not malate, 3 h
  Formation of formazan dyes, absorbance, Means 3 h: 0.99
Oral lavage [6]; oral lavage and diaphorase, not malate, 4 h
  Formation of formazan dyes, absorbance, Means 4 h: 1.18
Oral lavage [6]; oral lavage and diaphorase, not malate, 6 h
  Formation of formazan dyes, absorbance, Means 6 h: 1.24
Oral lavage [6]; oral lavage and diaphorase, not malate, 8 h
  Formation of formazan dyes, absorbance, Means 8 h: 1.26
Oral lavage [6]; oral lavage and diaphorase, not malate, 10 h
  Formation of formazan dyes, absorbance, Means 10 h: 1.27
Oral lavage [6]; oral lavage and diaphorase, not malate, 12 h
  Formation of formazan dyes, absorbance, Means 12 h: 1.28
Oral lavage [6]; pooled oral lavage of high bleeder group, diaphorase, no added malate (TABLE 11)
  reduction to formazan dyes by pooled oral lavage: changed to formazan dyes in a significant amount
Malate dehydrogenase [7]
  Absorbance, formation of formazan dyes (Means): 2.09 and 3.28 and 3.71 and 3.96 and 4.00
Malate dehydrogenase [8]
  Absorbance, formation of formazan dyes (Means): 0.61 and 0.72 and 0.80 and 0.82 and 0.84 and 0.85 and 0.91 and 0.93
Diaphorase [9]; 0 h
  Formation of formazan dyes, absorbance, Means 0 h: 2.22
Diaphorase [9]; 1 h
  Formation of formazan dyes, absorbance, Means 1 h: 2.35
Diaphorase [9]; 2 h
  Formation of formazan dyes, absorbance, Means 2 h: 2.36
Diaphorase [9]; 3 h
  Formation of formazan dyes, absorbance, Means 3 h: 2.32
Diaphorase [9]; 4 h
  Formation of formazan dyes, absorbance, Means 4 h: 2.40
Diaphorase [9]; 6 h
  Formation of formazan dyes, absorbance, Means 6 h: 2.39
Diaphorase [9]; 8 h
  Formation of formazan dyes, absorbance, Means 8 h: 2.45
Diaphorase [9]; 10 h
  Formation of formazan dyes, absorbance, Means 10 h: 2.45
Diaphorase [9]; 12 h
  Formation of formazan dyes, absorbance, Means 12 h: 2.46
Diaphorase [10]; 0 h
  Formation of formazan dyes, absorbance, Means 0 h: 1.95
Diaphorase [10]; 1 h
  Formation of formazan dyes, absorbance, Means 1 h: 2.20
Diaphorase [10]; 2 h
  Formation of formazan dyes, absorbance, Means 2 h: 2.18
Diaphorase [10]; 3 h
  Formation of formazan dyes, absorbance, Means 3 h: 2.17
Diaphorase [10]; 4 h
  Formation of formazan dyes, absorbance, Means 4 h: 2.23
Diaphorase [10]; 6 h
  Formation of formazan dyes, absorbance, Means 6 h: 2.28
Diaphorase [10]; 8 h
  Formation of formazan dyes, absorbance, Means 8 h: 2.33
Diaphorase [10]; 10 h
  Formation of formazan dyes, absorbance, Means 10 h: 2.41
Diaphorase [10]; 12 h
  Formation of formazan dyes, absorbance, Means 12 h: 2.45
[11]
  Absorbance, formation of formazan dyes (Means): 1.51 and 1.56 and 1.61 and 1.67 and 1.80 and 1.94 and 2.02 and 2.15
[12]
  Means absorbance 0 h: 0.42
  Means absorbance 1 h: 0.48
  Means absorbance 2 h: 0.53
  Means absorbance 3 h: 0.59
  Means absorbance 4 h: 0.60
  Means absorbance 6 h: 0.77
  Means absorbance 8 h: 0.91
  Means absorbance 10 h: 1.03
  Means absorbance 12 h: 1.17
Oral lavage [13]; 0 h
  Formation of formazan dyes, absorbance, Means 0 h: 0.75
Oral lavage [13]; 1 h
  Formation of formazan dyes, absorbance, Means 1 h: 0.88
Oral lavage [13]; 2 h
  Formation of formazan dyes, absorbance, Means 2 h: 0.94
Oral lavage [13]; 3 h
  Formation of formazan dyes, absorbance, Means 3 h: 0.98
Oral lavage [13]; 4 h
  Formation of formazan dyes, absorbance, Means 4 h: 1.19
Oral lavage [13]; 6 h
  Formation of formazan dyes, absorbance, Means 6 h: 1.41
Oral lavage [13]; 8 h
  Formation of formazan dyes, absorbance, Means 8 h: 1.73
Oral lavage [13]; 10 h
  Formation of formazan dyes, absorbance, Means 10 h: 1.90
Oral lavage [13]; 12 h
  Formation of formazan dyes, absorbance, Means 12 h: 2.08

Reference: patent publication US20180320217A1, “METHODS FOR SAMPLING AND MEASURING ORAL LAVAGE PROTEINS” (The Procter & Gamble Company, priority 2017, published 2018)
